Measurements taken from patent US10307383B2, “Cosmetic composition for preventing or ameliorating hypersensitive skin comprising cedrol or derivatives thereof, or pharmaceutically acceptable salts thereof” (University of Seoul Industry Cooperation Foundation, priority 2017, dated 2019).

What was measured:
Assay type in all cases: in vivo, Balb/c mouse
[1] = system: psoriasis induced mice (imiquimod); experiment: Skin flair reduction effect in the psoriasis induced mice (PASI); details: for skin flair mean point (PASI): day 7, 100 mg/kg oral once a day, IMQ applied, IMQ alone 4.00
Description: (§1) To investigate the delayed effect of cedrol, cedryl acetate, and alpha-cedrene on the development of psoriasis, total 5 groups of mice were prepared (8 mice/group). First, the hair of the entire back of the 8-week-old male Balb/c mouse whose immune system was weakened was removed by using a hair clipper (Kimlaube Hair pen 325,327, Rikei, Korea). In the middle of the shaved back of the mouse, 2 mg of imiquimod (3M Health Care Limited, England) was applied in the area of 2 cm×1.5 cm and also 1,125 mg of imiquimod was applied on the right ear of the mouse every day once a day to induce psoriasis.
(§2) The mice prepared above were divided into the distilled water treated group (IMQ), the cedrol treated group (C), the cedryl acetate treated group (CA), and the alpha-cedrene treated group (CE). At this time, the mice were orally treated with distilled water at the concentration of 200 μl/mouse and cedrol or its derivatives at the concentration of 200 μl/mouse (100 mg/kg). The day when distilled water or the compound administration started was recorded as day 0 and the administration was performed once a day for a week, during which photo-recording was performed every day (FIGS. 2A˜2D). In the meantime, instead of applying imiquimod, 40 mg of vaseline was applied on the back of the control group (CONT) and 22.5 mg of vaseline was applied on the right ear of the control group. And the control group was orally administered with distilled water (200 μl/mouse).
Then, the psoriasis area severity index (PASI) was calculated to confirm the reduction effect of the compounds on skin flair. Skin flair is a symptom of psoriasis. The application of IMQ can induce skin flair.

[2] = system: psoriasis induced mice (imiquimod); experiment: Skin pain reduction effect in the psoriasis induced mice (back pinch, mice counted); details: for number of mice showing skin pain: IMQ applied
Description: as §1, §2
When the back of the psoriasis induced mice orally administered with cedrol, cedryl acetate, and alpha-cedrene of Example <2-1> was pinched, those mice who sound painfully with strong rejection were counted. Skin pain is a symptom of psoriasis, and when IMQ is applied, skin pain becomes stronger as time goes by.

[3] = system: psoriasis induced mice (imiquimod); experiment: Skin hemorrhage spot reduction effect in the psoriasis induced mice; details: for number of mice showing hemorrhage spots: IMQ applied, 8 mice/group
Description: as §1, §2
The psoriasis induced mice orally administered with cedrol, cedryl acetate, and alpha-cedrene of Example <2-1> were observed by the naked eye, and the number of mice showing hemorrhage spots was counted. Hemorrhage spot is a symptom of psoriasis, and when IMQ is applied, the number of skin hemorrhage spots increases as time goes by.

[4] = system: psoriasis induced mice (imiquimod); experiment: Skin thickness of the psoriasis induced mice (hematoxylin and eosin staining); details: day 7, 100 mg/kg oral; for skin thickness: IMQ applied, control 1,045, IMQ alone 1,181; for skin thickness, % inhibition: versus IMQ alone
Description: as §1, §2
The skin of the psoriasis induced mice orally administered with cedrol, cedryl acetate, and alpha-cedrene of Example <2-1> was stained with hematoxyline and eosine in order to compare the skin thickness.
Particularly, the psoriasis induced mice of Example <2-1> were sacrificed with CO2, from which 1 cm×1 cm portions of the back surface were obtained and placed in PBS. The tissues washed with PBS were loaded in 10% formalin, followed by fixing at room temperature for a day. The fixed tissues were washed with PBS once, followed by dehydration with 25% methanol, 50% methanol, 75% methanol, and 100% methanol for 30 minutes each. Further dehydration of those tissues was additionally performed with 100% ethanol twice for 30 minutes each; with the mixed solution comprising ethanol and xylene (1:1) for 30 minutes, and with 100% xylene twice for 30 minutes each. 4 hours before washing, the modular tissue embedding center (LEICA EG 1150H, Leica, Germany) was turned on and paraplast plus (Sigma Aldrich, Korea) was melted at 60° C., followed by washing the paraffin. The tissues were loaded in a bottle, to which the melted paraffin was poured in, followed by washing in a 60° C. warm chamber twice for one hour each. The xylene-free tissues were placed in the paraffin solution, followed by reaction in the warm chamber for a day. The tissue sections were then placed on a Peel-A-Way embedding mold (Polysciences, Taiwan) and the paraffin solution was filled to half of the mold. The tissue sections were placed on top of the Peel-A-Way embedding mold, followed by fixing. An embedding ring (Thomas Scientific, USA) was placed on the mold, which was treated with the paraffin solution to solidify the mold and the ring at 4° C. for 3 hours, followed by reaction at 4° C. for a day. The embedded tissues can be semipermanently stored at 4° C. The embedded tissues were cut by using a semi-motorized rotary microtome (LEICA RM2145 Microtome, Leica, Germany), which were suspended in a 37° C. water bath to spread the paraffin wrinkles. The straightened wrinkles were collected by using a micro silane coating slide (Muto Pure Chemicals, Japan), which were dried at 37° C. for a day. When the tissues were completely dried, they were treated with xylene twice for 5 minutes each in order to eliminate the paraffin remaining in the tissues. The tissues were further washed with the mixed solution comprising ethanol and xylene (1:1), 100% ethanol, 100% methanol, 75% methanol, and 50% methanol for 2 minutes each to stain the tissues easily. […]

[5] = system: psoriasis induced mice (imiquimod); experiment: Recovery effect on ear thickness of the psoriasis induced mice after termination of imiquimod (PASI)
Description: (§3) Imiquimod was applied to the psoriasis induced mice which had developed psoriasis for a week in Example <2-1>. The application was stopped 8 days after the application began. The groups CON and IMQ were treated with distilled water, the group C was treated with cedrol, the group CA was treated with cedryl acetate, the group CE was treated with alpha-cedrene alone at the concentration of 100 mg/kg in 200 μl, every day via oral-administration. Day 8 was the day the imiquimod application was stopped, since then the compounds were administered for 1 week once a day, during which photo-recording was performed (FIGS. 13A˜13D).
The psoriasis area severity index (Psoriasis Area Severity Index, PASI) was given from the point 1 to point 4, based on which the recovery effect on the ear thickness was evaluated.

[6] = system: psoriasis induced mice (imiquimod); experiment: Recovery effect on skin flair of the psoriasis induced mice after termination of imiquimod (PASI); details: for PASI reflecting skin flair: day 8 (imiquimod application stopped), 100 mg/kg oral; for skin flair disappearance (in words): on day 16, 100 mg/kg oral after termination of imiquimod
Description: as §3
Then, the psoriasis area severity index (Psoriasis Area Severity Index, PASI) was calculated, based on which the recovery effect on keratosis was evaluated.

[7] = system: psoriasis induced mice (imiquimod); experiment: Recovery effect on hemorrhage spots of the psoriasis induced mice
Description: as §3
The psoriasis induced mice orally administered with cedrol, cedryl acetate, and alpha-cedrene of Example <3-1> were observed by the naked eye, and the number of mice showing the recovery of hemorrhage spots was counted.

[8] = day 7, 100 mg/kg oral, IMQ alone 5
[9] = day 8 (imiquimod application stopped), 100 mg/kg oral
[10] = day 8, 100 mg/kg oral, 8 mice/group
[11] = day 16, 100 mg/kg oral after termination of imiquimod
[12] = 100 mg/kg oral after termination of imiquimod

Compound | skin flair mean point (PASI) [1] [point] | number of mice showing hemorrhage spots ([3]; day 5, 100 mg/kg oral) | number of mice showing hemorrhage spots [3, 8] | skin thickness [4] [μm] | skin thickness, % inhibition [4] [% inhibition] | PASI reflecting the ear thickness [5, 9] [point] | PASI reflecting skin flair [6] [point] | skin flair disappearance (in words) [6] | number of mice showing hemorrhage spots [7, 10] [mice] | number of mice showing hemorrhage spots [7, 11] | other results
CC1=CC[C@@]23C[C@@H]1C(C)(C)[C@@H]2CC[C@H]3C [alpha-cedrene, Alpha-cedrene] | 3.33 | two | one | 954 | 19.2 | 4.0±0.0 | 4.0±1.0 | skin flair of all mice disappeared | 4 | no mouse | skin flair reduction effect, comparison in words ([1]; 100 mg/kg oral, 7 days): strongest reduction effect; skin pain reduction effect, comparison in words ([2]; 100 mg/kg oral, 7 days): strongest reduction effect; number of mice showing skin pain ([2]; during the 7 day observation period, 100 mg/kg oral): no mice; PASI reflecting the ear thickness ([5]; day 15, 100 mg/kg oral once a day after termination of imiquimod): 0.7±0.6 point
C[C@@H]1CC[C@H]2C(C)(C)[C@H]3C[C@@]12CC[C@@]3(C)O [cedrol, Cedrol] | 3.33 |  | 3 mice | 954 | 19.2 | 4.0±0.6 | 3.0±0.6 | skin flair of all mice disappeared | 6 |  | number of mice showing skin pain ([2]; day 4, 100 mg/kg oral, 8 mice/group): one; number of mice showing skin pain ([2]; day 5, 100 mg/kg oral, 8 mice/group): no mice; number of mice showing hemorrhage spots ([3]; day 4, 100 mg/kg oral): one; PASI reflecting the ear thickness ([5]; day 16, 100 mg/kg oral once a day after termination of imiquimod): 0.7±0.6 point; skin flair recovery effect, comparison in words [6, 12]: strongest recovery effect; hemorrhage spot recovery effect, comparison in words [7, 12]: strongest recovery effect; number of mice showing hemorrhage spots ([7]; day 12, 100 mg/kg oral after termination of imiquimod): no mouse
CC(=O)O[C@]1(C)CC[C@@]23C[C@@H]1C(C)(C)[C@@H]2CC[C@H]3C [cedryl acetate, Cedryl acetate] | 3.16 | one | one | 999 | 15.3 | 4.0±0.6 | 4.0±0.0 |  | 6 | no mouse | number of mice showing skin pain ([2]; day 6, 100 mg/kg oral, 8 mice/group): one; number of mice showing skin pain ([2]; day 7, 100 mg/kg oral, 8 mice/group, IMQ alone 5): no mice; skin hemorrhage spot reduction effect, comparison in words ([3]; 100 mg/kg oral, 7 days): strongest reduction effect; ear thickness recovery effect, comparison in words [5, 12]: strongest recovery effect; ear thickness recovered to normal (in words) ([5]; from day 15, 100 mg/kg oral after termination of imiquimod): all 8 mice were recovered to normal
